Assay [1] concerns K. pneumoniae 225. Particulars: test drug disk around amoxicillin-clavulanate disk.
The target of assay [2] is single beta-lactamase in E. coli cell extracts (Escherichia coli, UniProt P62593, E102K/R162S). Kind of assay: Spectrophotometric hydrolysis assay on crude beta-lactamase extracts. The settings on record: E. coli Pit 64 extract, beta-lactamase pI 5.6; 100 μM substrate.
Assay [3] deals with E. coli C600N transconjugants. Kind of assay: Susceptibility of transconjugants. It counts as cell-based, Escherichia coli. The settings on record: E. coli C600N transconjugants of E. aerogenes 187, 200, 220, 184. As to the method: Antibiotic susceptibilities were determined by standard disk-diffusion (NCCLS Standard M2-A6) and agar-dilution (NCCLS Standard M7-A4) procedures. Disks were obtained from Becton Dickinson Microbiology Systems (Cockeysville, Md.). Disk-diffusion susceptibilities to the following antibiotics were determined, ampicillin; amoxicillin clavulanic acid; aztreonam; cefazolin; cefoxitin; cefuroxime; cefotaxime; ceftriaxone; ceftazidime; cefepime; imipenem; gentamicin; trimethoprim/sulfamethoxazole and ciprofloxacin. […] The following quality control strains were run simultaneously with the test organisms Escherichia coli ATCC 25922, Pseudomonas aeruginosa ATCC 27853, and E. coli ATCC 35218. Throughout this study, results were interpreted using NCCLS criteria for disk diffusion (NCCLS M2-A6) and broth dilution (NCCLS M7-A4).
[…]. The filter paper mating technique with overnight incubation at 37° C. were performed as described previously (Philippon et al., Antimicrob. Agents Chemother., 33:1131-1136 (1989)). Transconjugants were selected on LB (Luria Bertani) agar [Difco (Detroit, Mich.)] plates containing 12 μg per ml nalidixic acid and 20 μg per ml ampicillin.

For assay [4], the target named is beta-lactamases in sonic extracts of K. pneumoniae (Klebsiella pneumoniae, UniProt P0AD64, E235K/G234S). The settings on record: Kpn2, beta-lactamase pI 8.2 (SHV-5); 0.75 μg/ml cefotaxime.
Assay [5] addresses beta-lactamases in sonic extracts of K. pneumoniae (Klebsiella pneumoniae, UniProt P0AD64). The settings on record: Kpn1, beta-lactamase pI 7.6 (SHV-1); 0.75 μg/ml cefotaxime.
Assay [6] addresses beta-lactamases in sonic extracts of K. pneumoniae (Escherichia coli, UniProt P62593). Particulars: 0.75 μg/ml cefotaxime.
The test system of assay [7] is beta-lactamases in sonic extracts of K. pneumoniae. The settings on record: 0.75 μg/ml cefotaxime.

Where two headings read alike, the source gives them in different places.

Take `CO/N=C(\C(=O)N[C@@H]1C(=O)N2C(C(=O)O)=C(COC(C)=O)CS[C@H]12)c1csc(N)n1` [cefotaxime]: the “clavulanate double-disk potentiation test” value in assay [1] is “positive”. In addition, the Hydrolysis in assay [2] is 1 nmol of substrate hydrolyzed/m. In addition, the “susceptibility after transfer of plasmids encoding SHV beta-lactamase genes” value in assay [3] is “decreased susceptibility”. The ctx hydrolysis entry is on record as “Yes” in assay [4]; “No” in assay [5]; “No” in assay [6] (Kpn2, beta-lactamase pI 5.4 (TEM-1)); “No” in assay [6] (Kpn3, beta-lactamase pI 5.4 (TEM-1)); “Yes” in assay [7] (Kpn1, beta-lactamase pI 5.6 (TEM-10 or 26)); “Yes” in assay [7] (Kpn2, beta-lactamase pI 7.6 (SHV-2 or 8)). In addition, the ctx hydrolysis entry in assay [7] (Kpn3, beta-lactamase pI 8.0 (AmpC)) was “Yes”.

The values are drawn from US6893846B2, “Primers for use in detecting beta-lactamases” (priority 1998, dated 2005).
